Where “and” joins values, the source holds several entries; their conditions need not be identical. Identical values can stand only once.
Tested on: 379773-124-R-J2-PDC complex spheroids, viability % test/control
Test: Anticancer human tumor 379773-124-R-J2-PDC patient-derived endometrial carcinoma cell line growth inhibition [CLK]
Settings: for viability, T/C: stronger effect = lower value; active = viability on the fitted dose curve at most 10% of control; inactive = the rest
In short: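 Patient-derived tumor cells grown as complex spheroids with HUVEC endothelial cells and mesenchymal stem cells, treated with drug combinations. Concentrations descend in half-log steps from near clinical Cmax, or from 10 microM if Cmax unknown.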

[1] = curve of first compound, second compound 0.0316 µM
[2] = curve of first compound, second compound 0.1 µM
[3] = curve of first compound, second compound 0.316 µM
[4] = curve of first compound, second compound 1 µM
[5] = curve of first compound, second compound 3.16 µM
[6] = curve of first compound, second compound 10 µM
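Note: compound exposure lasted seven days before the viability readout.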
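Throughout, for viability, T/C: 100% = DMSO vehicle control wells.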

C=CC(=O)Nc1cc(Nc2nccc(-c3cn(C)c4ccccc34)n2)c(OC)cc1N(C)CCN(C)C + CNC(=O)c1ccc(Nc2nc(OC3CCCC3)c3c(-c4ccc5nc(C)oc5c4)c[nH]c3n2)c(OC)c1
inactive: viability, T/C (second compound 0.0316 µM, first compound 0.000949 µM) 82.7% | viability, T/C (second compound 0.0316 µM, first compound 0.003 µM) 84.2% | viability, T/C (second compound 0.0316 µM, first compound 0.00949 µM) 78.9% | viability, T/C (second compound 0.0316 µM, first compound 0.03 µM) 73% | viability, T/C (second compound 0.0316 µM, first compound 0.0949 µM) 77.6% | viability, T/C (second compound 0.0316 µM, first compound 0.3 µM) 58.1% | viability, T/C (second compound 0.1 µM, first compound 0.000949 µM) 35.2% | viability, T/C (second compound 0.1 µM, first compound 0.003 µM) 37% | viability, T/C (second compound 0.1 µM, first compound 0.00949 µM) 42.6% | viability, T/C (second compound 0.1 µM, first compound 0.03 µM) 31.2% | viability, T/C (second compound 0.1 µM, first compound 0.0949 µM) 32.5% | viability, T/C (second compound 0.1 µM, first compound 0.3 µM) 38% | viability, T/C (second compound 0.316 µM, first compound 0.000949 µM) 44.7% | viability, T/C (second compound 0.316 µM, first compound 0.003 µM) 39.9% | viability, T/C (second compound 0.316 µM, first compound 0.00949 µM) 32% | viability, T/C (second compound 0.316 µM, first compound 0.03 µM) 34.5% | viability, T/C (second compound 0.316 µM, first compound 0.0949 µM) 31.3% | viability, T/C (second compound 0.316 µM, first compound 0.3 µM) 26.2% | viability, T/C (second compound 1 µM, first compound 0.000949 µM) 45.4% | viability, T/C (second compound 1 µM, first compound 0.003 µM) 39% | viability, T/C (second compound 1 µM, first compound 0.00949 µM) 31.2% | viability, T/C (second compound 1 µM, first compound 0.03 µM) 28.8% | viability, T/C (second compound 1 µM, first compound 0.0949 µM) 26.6% | viability, T/C (second compound 1 µM, first compound 0.3 µM) 30.4% | viability, T/C (second compound 3.16 µM, first compound 0.000949 µM) 30.1% | viability, T/C (second compound 3.16 µM, first compound 0.003 µM) 37.5% | viability, T/C (second compound 3.16 µM, first compound 0.00949 µM) 32.5% | viability, T/C (second compound 3.16 µM, first compound 0.03 µM) 34.3% | viability, T/C (second compound 3.16 µM, first compound 0.0949 µM) 25.7% | viability, T/C (second compound 3.16 µM, first compound 0.3 µM) 28.2% | viability, T/C (second compound 10 µM, first compound 0.000949 µM) 30.9% | viability, T/C (second compound 10 µM, first compound 0.003 µM) 30.1% | viability, T/C (second compound 10 µM, first compound 0.00949 µM) 27.1% | viability, T/C (second compound 10 µM, first compound 0.03 µM) 35.1% | viability, T/C (second compound 10 µM, first compound 0.0949 µM) 28% | viability, T/C (second compound 10 µM, first compound 0.3 µM) 25.9%
> 300 nM: IC50 [1]
< 0.949 nM: IC50 [2] | IC50 [3] | IC50 [4] | IC50 [5] | IC50 [6]

CCc1c2c(nc3ccc(O)cc13)-c1cc3c(c(=O)n1C2)COC(=O)[C@]3(O)CC
inactive: viability, T/C (compound 0.00316 µM) 24.2% and 20.4%
< 3.16 nM: IC50 (curve of compound)
active: viability, T/C (compound 0.01 µM) 8.01% and 6.62% | viability, T/C (compound 0.0316 µM) 5.03% and 4.19% | viability, T/C (compound 0.1 µM) 2.77% and 1.93% | viability, T/C (compound 0.316 µM) 0.94% and 0.86% | viability, T/C (compound 1 µM) 0.57% and 0.46%

COc1c(OCCCN2CCOCC2)ccc2c3n(c(=NC(=O)c4cnc(N)nc4)nc12)CCN3 + CN1CCN(c2cc(C(=O)Nc3cc4cc(-c5cnn(C)c5)ccc4cn3)ccn2)CC1
< 3.16 nM: IC50 [3] | IC50 [4] | IC50 [5] | IC50 [6]
active: viability, T/C (second compound 0.0316 µM, first compound 0.316 µM) 10.9% | viability, T/C (second compound 0.0316 µM, first compound 1 µM) 2.85% | viability, T/C (second compound 0.1 µM, first compound 0.316 µM) 6.86% | viability, T/C (second compound 0.1 µM, first compound 1 µM) 2.02% | viability, T/C (second compound 0.316 µM, first compound 0.316 µM) 3.33% | viability, T/C (second compound 0.316 µM, first compound 1 µM) 1.61% | viability, T/C (second compound 1 µM, first compound 0.00316 µM) 0.15% | viability, T/C (second compound 1 µM, first compound 0.01 µM) 0.35% | viability, T/C (second compound 1 µM, first compound 0.0316 µM) 0.15% | viability, T/C (second compound 1 µM, first compound 0.1 µM) 0.11% | viability, T/C (second compound 1 µM, first compound 0.316 µM) 0.09% | viability, T/C (second compound 1 µM, first compound 1 µM) 0.08% | viability, T/C (second compound 3.16 µM, first compound 0.00316 µM) 0.07% | viability, T/C (second compound 3.16 µM, first compound 0.01 µM) 0.45% | viability, T/C (second compound 3.16 µM, first compound 0.0316 µM) 0.29% | viability, T/C (second compound 3.16 µM, first compound 0.1 µM) 0.11% | viability, T/C (second compound 3.16 µM, first compound 0.316 µM) 0.11% | viability, T/C (second compound 3.16 µM, first compound 1 µM) 0.1% | viability, T/C (second compound 10 µM, first compound 0.00316 µM) 0.16% | viability, T/C (second compound 10 µM, first compound 0.01 µM) 0.13% | viability, T/C (second compound 10 µM, first compound 0.0316 µM) 0.92% | viability, T/C (second compound 10 µM, first compound 0.1 µM) 0.79% | viability, T/C (second compound 10 µM, first compound 0.316 µM) 0.79% | viability, T/C (second compound 10 µM, first compound 1 µM) 0.15%
50.6 nM: IC50 [2]
70.5 nM: IC50 [1]
inactive: viability, T/C (second compound 0.0316 µM, first compound 0.00316 µM) 94.2% | viability, T/C (second compound 0.0316 µM, first compound 0.01 µM) 92.8% | viability, T/C (second compound 0.0316 µM, first compound 0.0316 µM) 87.6% | viability, T/C (second compound 0.0316 µM, first compound 0.1 µM) 33.5% | viability, T/C (second compound 0.1 µM, first compound 0.00316 µM) 89.6% | viability, T/C (second compound 0.1 µM, first compound 0.01 µM) 74.7% | viability, T/C (second compound 0.1 µM, first compound 0.0316 µM) 65.4% | viability, T/C (second compound 0.1 µM, first compound 0.1 µM) 31.4% | viability, T/C (second compound 0.316 µM, first compound 0.00316 µM) 21% | viability, T/C (second compound 0.316 µM, first compound 0.01 µM) 23.7% | viability, T/C (second compound 0.316 µM, first compound 0.0316 µM) 18.5% | viability, T/C (second compound 0.316 µM, first compound 0.1 µM) 6.99%
